Data published in patent publication US20200407370A1, “PEPTIDYLARGININE DEIMINASE INHIBITOR AND USE THEREOF” (Nanjing Transthera Biosciences Co., Ltd., priority 2018, published 2020).

Legend:
Format in all cases: in vitro ADME
[1] = Liver microsomal stability in human; settings: human liver microsomes, 0.5 mg protein/mL, 1 μM compound, 37° C.
Description: (§1) Experimental Example 2: Evaluation on Liver Microsomal Stability of the Compound Disclosed Herein in Human/Canine
(§2) An appropriate amount of the compound was precisely weighed and dissolved in DMSO to prepare a 5.0 mM stock solution. 5.0 mM stock solution was diluted to 1.0 mM with DMSO, and then diluted with water to 10 μM, serving as a compound working solution for later use (DMSO content in the reaction system: 0.1% v/v).
(§3) • (1) The liver microsomes (20 mg protein/mL) were taken from a −80° C. refrigerator, pre-incubated on a 37° C. water bath thermostatic oscillator for 3 min, and thawed for use. • (2) A mixed incubation system solution (without compounds or β-NADPH) was prepared according to the proportion of “composition of the incubation system” described above and pre-incubated on a 37° C. water bath thermostatic oscillator for 2 min. • (3) Control group (without β-NADPH): 30 μL of water and 30 μL of compound working solution (10 μM) were added to 240 μL of the mixed incubation system solution in step (2), and the mixture was vortexed for 30 s and mixed. The total volume of the mixture was 300 μL. The sample was duplicated. The reaction solution was placed on a 37° C. water bath thermostatic oscillator for incubation, and timing was started. Samples were collected at 0 min and 60 min. • (4) Sample group: 70 μL of β-NADPH solution (10 mM) and 70 μL of compound working solution (10 μM) were added to 560 μL of the mixed incubation system solution in step (2), and the total volume of the mixture was 700 μL. The mixture was vortexed for 30 s and mixed. The sample was duplicated. The reaction solution was placed on a 37° C. water bath thermostatic oscillator for incubation, and timing was started. Samples were collected at 0 min, 5 min, 10 min, 20 min, 30 min and 60 min after timing. • (5) The reaction solution was vortexed for 3 min, and centrifuged at 12,000 rpm for 5 min. • (6) 50 μL of the supernatant was added to 150 μL of water, and the resulting solution was vortexed and mixed before LC/MS/MS analysis.
(§4) The half-life (t1/2) and clearance (Cl) were calculated using the following first-order kinetic formula:
(§5) Vd=1/protein content in liver microsomes
(§6) Note: k denotes the slope of the logarithm of the remaining amount of a compound vs. time, Vd denotes apparent volume of distribution, C0 denotes drug concentration at 0 h, Ct denotes drug concentration at time t, t denotes time, e denotes natural number, and Clint denotes intrinsic clearance.

[2] = Liver microsomal stability in rat; settings: rat liver microsomes, 0.5 mg protein/mL, 1 μM compound, 37° C.
Description: (§7) Experimental Example 4:Evaluation on Liver Microsomal Stability of the Compound Disclosed Herein in Mouse/Rat
(§8) Objective: To evaluate the liver microsomal stability of the compound disclosed herein in mouse/rat
as §2
as §2, with “methanol” for “DMSO”, “methanol,” for “DMSO,”, “10% methanol-water (v/v) solution” for “water”, “(methanol” for “(DMSO”, “1.1%” for “0.1%”
(§9) • (1) The liver microsomes (20 mg protein/mL) were taken from a −80° C. refrigerator, pre-incubated on a 37° C. water bath thermostatic oscillator for 3 min, and thawed for use. • (2) A mixed incubation system solution (without compounds or […]) was prepared according to the proportion of “composition of the incubation system” described above and pre-incubated on a 37° C. water bath thermostatic oscillator for 2 min. • (3) Control group (without β-NADPH): 30 μL of water and 30 μL of compound working solution (10 μM) were added to 240 μL of the mixed incubation system solution in step (2), and the mixture was vortexed for 30 s and mixed. The total volume of the mixture was 300 μL. The sample was duplicated. The reaction solution was placed on a 37° C. water bath thermostatic oscillator for incubation, and timing was started. Samples were collected at 0 min and 60 min. • (4) Sample group: 70 μL of β-NADPH solution (10 mM) and 70 μL of compound working solution (10 μM) were added to 560 μL of the mixed incubation system solution in step (2), and the total volume of the mixture was 700 μL. The mixture was vortexed for 30 s and mixed. The sample was duplicated. The reaction solution was placed on a 37° C. water bath thermostatic oscillator for incubation, and timing was started. Samples were collected at 0 min, 5 min, 10 min, 20 min, 30 min and 60 min after timing. • (5) The reaction solution was vortexed for 3 min, and centrifuged at 12,000 rpm for 5 min. • (6) 50 μL of the supernatant was added to 150 μL of water, and the resulting solution was vortexed and mixed before LC/MS/MS analysis.
as §4, §5, §6

[3] = Liver microsomal stability in canine; settings: dog; canine liver microsomes, 0.5 mg protein/mL, 1 μM compound, 37° C.
Description: as §1, §2, §3, §4, §5, §6

[4] = Liver microsomal stability in mouse; settings: mouse liver microsomes, 0.5 mg protein/mL, 1 μM compound, 37° C.
Description: as §7, §8, §2
as §2, with “methanol” for “DMSO”, “methanol,” for “DMSO,”, “10% methanol-water (v/v) solution” for “water”, “(methanol” for “(DMSO”, “1.1%” for “0.1%”
as §9, §4, §5, §6

Compound | half-life at 1 μM [2] [h] | microsomal CLint at 1 μM [2] [µL/min/mg] | half-life at 1 μM [4] [h] | microsomal CLint at 1 μM [4] [µL/min/mg] | further results
CCn1c(-c2nc3cc(C(=O)N4CCC[C@@H](N)C4)cc(OC)c3n2C)cc2ccsc21 [Compound 3, (R)-(3-aminopiperidin-1-yl)(2-(6-ethyl-6H-thieno[2,3-b]pyrrol-5-yl)-7-methoxy-1-methyl-1H-benzo[d]imidazol-5-yl)methanone] | 3.98 | 5.8 | – | – | half-life at 1 μM [1]: 4.62 h; microsomal CLint at 1 μM [1]: 5 µL/min/mg
CCn1c(-c2nc3cc(C(=O)N4CCC[C@@H](N)C4)cc(OC)c3n2C)cc2cc(C)sc21 [Compound 9, (R)-(3-aminopiperidin-1-yl)(2-(6-ethyl-2-methyl-6H-thieno[2,3-b]pyrrol-5-yl)-7-methoxy-1-methyl-1H-benzo[d]imidazol-5-yl)methanone] | – | – | – | – | t1/2 [2]: →∞; half-life at 1 μM [3]: 23.1 h; microsomal CLint at 1 μM [3]: 1 µL/min/mg
COc1cc(C(=O)N2CCC[C@@H](N)C2)cc2nc(-c3cc4ccsc4n3CC3CC3)n(C)c12 [Compound 18, (R)-(3-aminopiperidin-1-yl)(2-(6-(cyclopropylmethyl)-6H-thieno[2,3-b]pyrrol-5-yl)-7-methoxy-1-methyl-1H-benzo[d]imidazol-5-yl)methanone] | – | – | 4.13 | 5.6 | half-life at 1 μM [1]: 3.5 h; microsomal CLint at 1 μM [1]: 6.6 µL/min/mg
COc1cc(C(=O)N2CCC[C@@H](N)C2)cc2nc(-c3cc4ccsc4n3CC(C)C)n(C)c12 [Compound 20, (R)-(3-aminopiperidin-1-yl)(2-(6-isobutyl-6H-thieno[2,3-b]pyrrol-5-yl)-7-methoxy-1-methyl-1H-benzo[d]imidazol-5-yl)methanone] | 5.25 | 4.4 | 11.6 | 2 | –
COc1cc(C(=O)N2CCC[C@@H](N)C2)cc2nc(-c3cc4ccsc4n3CC(F)(F)F)n(C)c12 [Compound 21, (R)-(3-aminopiperidin-1-yl)(7-methoxy-1-methyl-2-(6-(2,2,2-trifluoroethyl)-6H-thieno[2,3-b]pyrrol-5-yl)-1H-benzo[d]imidazol-5-yl)methanone] | 2.97 | 7.8 | – | – | –
COc1cc(C(=O)N2CCC[C@@H](N)C2)cc2nc(-c3cc4ccsc4n3CC3CCC3)n(C)c12 [Compound 22, (R)-(3-aminopiperidin-1-yl)(2-(6-(cyclobutylmethyl)-6H-thieno[2,3-b]pyrrol-5-yl)-7-methoxy-1-methyl-1H-benzo[d]imidazol-5-yl)methanone] | – | – | 2.68 | 8.6 | –
COc1cc(C(=O)N2CCC[C@@H](N)C2)cc2nc(-c3cc4cc(C)sc4n3CC3CC3)n(C)c12 [Compound 23, (R)-(3-aminopiperidin-1-yl)(2-(6-(cyclopropylmethyl)-2-methyl-6H-thieno[2,3-b]pyrrol-5-yl)-7-methoxy-1-methyl-1H-benzo[d]imidazol-5-yl)methanone] | – | – | 3.98 | 5.8 | –
